Test results published in US20140243218A1, “COMPOSITION FOR DIAGNOSING OVARIAN CANCER METASTASIS USING CPG METHYLATION STATUS OF GENE PROMOTER AND USE THEREOF” (Ewha University - Industry Collaboration Foundation, priority 2013, published 2014).

Tested on: SK-OV-3 cell line
Assay: 5-aza-2′-deoxycytidine treatment of SK-OV-3 cell line, gene expression changes by qRT-PCR
Format: cell-based, human
Method: Human ovarian cancer cell line SK-OV-3 was purchased from American type culture collection (ATCC no. HTB-77) and cultured in a McCoy's 5a medium containing 10% FBS (fetal bovine serum), 100 U/mL penicillin and 100 μg/mL streptomycin.
Total RNAs were extracted from SK-OV-3 cell line and the tumor tissues using an RNeasy mini kit (Qiagen), respectively. The extraction was performed according to manufacturer's instructions. The extracted total RNAs were quantified using a spectrophotometer, and RNA degradation was examined by electrophoresis in a 1% agarose gel.
For cDNA synthesis, Superscript II reverse transcriptase (Invitrogen) was used. 1 μg of total RNA and 50 ng of oligo dT were denatured at 70° C. for 10 minutes, and then mixed with a reaction mixture containing 4 μl of 5×RT buffer, 2 μl of […], 4 μl of 2.5 mM dNTP mixture, 200 units of Superscript II reverse transcriptase and 10 units of RNase inhibitor to prepare 20 μl of the resulting reaction mixture, which was reacted at 25° C. for 10 minutes, at 42° C. for 50 minutes, and at 95° C. for 5 minutes to synthesize cDNA. This cDNA was diluted at 1:4, and 2 μl thereof was used as a template for qRT-PCR. In qRT-PCR, 20 μl of reaction mixture containing 2 μl of cDNA, 10 μl of SYBR Premix EX Taq (Takara Bio), 0.4 μl of Rox reference dye (50×, Takara Bio), and 200 nM of primers of each gene was reacted at 95° C. for 30 seconds, and then repeated for 40 cycles (at 95° C. for 3 seconds, and at 60° C. for 30 seconds) using an ABI 7500fast sequence detection system (Applied Biosystems) for amplification. The PCR products were reacted at 95° C. for 15 seconds, at 60° C. for 1 minute, and at 95° C. for 15 seconds to examine their specificity. 18S rRNA expression was used as an internal control, and expressions of AGR2, CA9, GABRP, IFITM1 and MUC13 genes were normalization using the 18S rRNA expression level by a ΔΔCT method. The sequences of the primers used are as follows.
SK-OV-3 cell line was treated with a methylation inhibitor, 5-aza-2′-deoxycytidine (Sigma-Aldrich) at concentrations of 5 and 10 μM for 3 days, and then changes in AGR2, CA9, GABRP, IFITM1, and MUC13 gene expressions were measured by qRT-PCP.

[1] = SK-OV-3 cells treated at 5 and 10 μM for 3 days, qRT-PCR normalized to 18S rRNA

Nc1ncn([C@H]2C[C@H](O)[C@@H](CO)O2)c(=O)n1 [5-aza-2′-deoxycytidine]
increase in AGR2 gene expression [1]: about 2 fold | increase in CA9 gene expression [1]: about 3.4 fold | increase in GABRP gene expression [1]: about 1.8 fold | increase in IFITM1 gene expression [1]: about 1.7 fold | increase in MUC13 gene expression [1]: 17.8 fold | changes in expressions of the five genes (AGR2, CA9, GABRP, IFITM1, and MUC13) (SK-OV-3 cells, treatment for 3 days, result in words): increased expressions of the above genes were observed
